19 compounds from patent publication US20250134907A1, “FUSED DIAZEPINES AS AGONISTS OF THE INSULIN-LIKE 3 (INSL3) PEPTIDE RECEPTOR RXFP2 AND METHODS OF USE THEREOF” (The United States of America,as represented by the …, priority 2022, published 2025) can be followed below.

The assay has as its target T1, RXFP2 (Homo sapiens, UniProt Q8WXD0).
T1 construct: expressed in transfected cells
In words: HTRF cAMP assay in HEK293T cells stably expressing RXFP2 (HEK-RXFP2). The class given is cell-based. The following applies: IBMX 200 μM; for EC50 / % EFF vs. 1 nM INSL3 (b): condition (b): 10,000 cells/well; for % EFF vs. 1 nM INSL3 (b): normalized to 1 nM INSL3 cAMP response. The procedure: Compound efficacy and EC50 were determined by measuring cAMP induction in vitro. HEK293T cells stably expressing RXFP2 (HEK-RXFP2) produce cAMP when RXFP2 is activated, which can be measured in an antibody-based immunoassay utilizing a fluorescent readout (cAMP Gs HiRange Kit, PerkinElmer, Waltham, MA). HEK-RXFP2 cells were seeded in 96-well plates in serum-free DMEM and incubated overnight at 37° C., 5% CO2. Plates were then treated with a compound titration up to 25 μM or INSL3 control, in the presence of isobutylmethylxanthine phosphodiesterase inhibitor (IBMX) at 200 μM to amplify the cAMP signal, for 1 hour at 37° C., 5% CO2 before being processed as per kit instructions. Table 7 lists the efficacy and EC50 of compounds tested under different experimental conditions. […] In condition (a), 20,000 cells were seeded per well in the 96 well plate, and efficacy was determined by normalizing the maximum compound cAMP response to the 1 nM INSL3 cAMP response (% Efficacy 1 nM INSL3 (a)). In condition (b), 10,000 cells were seeded per well, and compound response was normalized to the 1 nM INSL3 cAMP response (% Efficacy 1 nM INSL3 (b)). In condition (c), 7,500 cells were seeded per well, compound response was normalized to the 100 nM INSL3 cAMP response, and IBMX was omitted (% Efficacy 100 nM INSL3 (c)). A range is given when compounds were tested multiple times. Where compounds were tested under multiple experimental conditions, the EC50 listed for the corresponding condition is marked (a) through (c) to correlate. When EC50 could not be calculated from the dose-response curve, EC50 is listed as not determined (ND).
A general note: Time-resolved FRET reads energy transfer from a long-lived donor to a nearby acceptor.

T1 sequence (Q8WXD0 whole entry): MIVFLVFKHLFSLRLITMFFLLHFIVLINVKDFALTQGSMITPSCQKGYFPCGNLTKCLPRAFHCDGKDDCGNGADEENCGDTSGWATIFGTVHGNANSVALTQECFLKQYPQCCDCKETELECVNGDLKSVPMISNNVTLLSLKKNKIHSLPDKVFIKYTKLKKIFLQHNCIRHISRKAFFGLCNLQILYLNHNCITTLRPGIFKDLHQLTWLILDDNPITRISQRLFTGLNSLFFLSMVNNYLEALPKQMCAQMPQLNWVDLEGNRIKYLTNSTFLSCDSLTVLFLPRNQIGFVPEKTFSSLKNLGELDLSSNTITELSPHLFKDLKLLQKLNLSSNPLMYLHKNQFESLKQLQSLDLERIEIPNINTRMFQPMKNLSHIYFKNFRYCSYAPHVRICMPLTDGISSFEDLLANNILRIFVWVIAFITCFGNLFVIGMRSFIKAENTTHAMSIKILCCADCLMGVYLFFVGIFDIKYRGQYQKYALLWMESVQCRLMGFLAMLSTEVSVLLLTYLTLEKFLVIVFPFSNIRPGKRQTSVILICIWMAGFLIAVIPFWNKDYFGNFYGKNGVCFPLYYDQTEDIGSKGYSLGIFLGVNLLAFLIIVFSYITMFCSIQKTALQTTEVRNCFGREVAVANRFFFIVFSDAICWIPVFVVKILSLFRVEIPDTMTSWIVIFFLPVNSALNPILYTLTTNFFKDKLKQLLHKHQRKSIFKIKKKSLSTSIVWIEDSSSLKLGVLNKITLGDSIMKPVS

Regarding `Cc1cc(OC(F)(F)F)ccc1OCC(=O)N1CCN2C(=O)c3cc(-c4cccc(C(F)(F)F)c4)ccc3NC(=O)[C@H]2C1` [Example 121, (R)-2-(2-(2-methyl-4-(trifluoromethoxy)phenoxy)acetyl)-8-(3-(trifluoromethyl)phenyl)-1,3,4,12a-tetrahydrobenzo[e]pyrazino[1,2-a][1,4]diazepine-6,12 (2H, 11H)-dione], the “% EFF vs. 1 nM INSL3 (a)” value (condition (a): 20,000 cells/well, maximum cAMP response normalized to 1 nM INSL3 response) came to 28.28%. In the case of `O=C1Nc2ccc(-c3cc(C(F)(F)F)ccc3F)cc2C(=O)N2CCN(C(=O)COc3ccc(OC(F)(F)F)cc3Cl)C[C@@H]12` [Example 127, (S)-2-(2-(2-chloro-4-(trifluoromethoxy)phenoxy)acetyl)-8-(2-fluoro-5-(trifluoromethyl)phenyl)-1,3,4,12a-tetrahydrobenzo[e]pyrazino[1,2-a][1,4]diazepine-6,12 (2H, 11H)-dione], the EC50 (commonly the concentration needed to bring the measured effect to its halfway point) is 12 nM and the “% EFF vs. 1 nM INSL3 (b)” value is on record as 84.99%. On to `O=C1Nc2ccc(-c3cc(C(F)(F)F)ccc3F)cc2C(=O)N2CCN(C(=O)COc3ccc(OC(F)(F)F)cc3Cl)C[C@H]12` [Example 130, (R)-2-(2-(2-chloro-4-(trifluoromethoxy)phenoxy)acetyl)-8-(2-fluoro-5-(trifluoromethyl)phenyl)-1,3,4,12a-tetrahydrobenzo[e]pyrazino[1,2-a][1,4]diazepine-6,12 (2H, 11H)-dione], for which the “% EFF vs. 1 nM INSL3 (b)” value is recorded as 54.37%.

For `O=C1Nc2ccc(-c3cc(C(F)(F)F)ccc3F)cc2C(=O)N2CCN(C(=O)COc3ccc(C(F)(F)F)cc3Cl)C[C@@H]12` [Example 132, (S)-2-(2-(2-chloro-4-(trifluoromethyl)phenoxy)acetyl)-8-(2-fluoro-5-(trifluoromethyl)phenyl)-1,3,4,12a-tetrahydrobenzo[e]pyrazino[1,2-a][1,4]diazepine-6,12 (2H, 11H)-dione], the “% EFF vs. 1 nM INSL3 (b)” value was determined as 68.09%. As to `Cc1ccc(C(F)(F)F)cc1-c1ccc2c(c1)C(=O)N1CCN(C(=O)COc3ccc(OC(F)(F)F)cc3Cl)C[C@H]1C(=O)N2` [Example 136, (S)-2-(2-(2-Chloro-4-(trifluoromethoxy)phenoxy)acetyl)-8-(2-methyl-5-(trifluoromethyl)phenyl)-1,3,4,12a-tetrahydrobenzo[e]pyrazino[1,2-a][1,4]diazepine-6,12 (2H, 11H)-dione], the EC50 was in the range of 67 to 89.4 nM and the “% EFF vs. 1 nM INSL3 (b)” value is reported as 92.5-107.57%. `Cc1ccc(C(F)(F)F)cc1-c1ccc2c(c1)C(=O)N1CCN(C(=O)COc3ccc(C(F)(F)F)cc3Cl)C[C@H]1C(=O)N2` [Example 137, (S)-2-(2-(2-chloro-4-(trifluoromethyl)phenoxy)acetyl)-8-(2-methyl-5-(trifluoromethyl)phenyl)-1,3,4,12a-tetrahydrobenzo[e]pyrazino[1,2-a][1,4]diazepine-6,12 (2H, 11H)-dione]: the “% EFF vs. 1 nM INSL3 (b)” value was 53.62%. As for `Cc1cc(OC(F)(F)F)ccc1OCC(=O)N1CCN2C(=O)c3cc(-c4cc(F)cc(C(F)(F)F)c4)ccc3NC(=O)[C@@H]2C1` [Example 141, (S)-8-(3-fluoro-5-(trifluoromethyl)phenyl)-2-(2-(2-methyl-4-(trifluoromethoxy)phenoxy)acetyl)-1,3,4,12a-tetrahydrobenzo[e]pyrazino[1,2-a][1,4]diazepine-6,12 (2H, 11H)-dione], the EC50 was 36 to 54.5 nM and the “% EFF vs. 1 nM INSL3 (b)” value is listed as 95.53-115.85%. The like results for `O=C1Nc2ccc(-c3cc(F)cc(C(F)(F)F)c3)cc2C(=O)N2CCN(C(=O)COc3ccc(C(F)(F)F)cc3Cl)C[C@@H]12` [Example 142, (S)-2-(2-(2-chloro-4-(trifluoromethyl)phenoxy)acetyl)-8-(3-fluoro-5-(trifluoromethyl)phenyl)-1,3,4,12a-tetrahydrobenzo[e]pyrazino[1,2-a][1,4]diazepine-6,12 (2H, 11H)-dione] were, in that order, 48 nM and 80.32%.

With `O=C1Nc2ccc(-c3cccc(C(F)(F)F)c3)cc2C(=O)N2CCN(C(=O)COc3ccc(C(F)(F)F)c(F)c3F)C[C@@H]12` [Example 146, (S)-2-(2-(2,3-difluoro-4-(trifluoromethyl)phenoxy)acetyl)-8-(3-(trifluoromethyl)phenyl)-1,3,4,12a-tetrahydrobenzo[e]pyrazino[1,2-a][1,4]diazepine-6,12 (2H, 11H)-dione], the “% EFF vs. 1 nM INSL3 (b)” value stood at 47.43%. Consider `Cc1cc(-c2ccc3c(c2)C(=O)N2CCN(C(=O)COc4ccc(OC(F)(F)F)cc4Cl)C[C@H]2C(=O)N3)cc(C(F)(F)F)c1` [Example 150, (S)-2-(2-(2-chloro-4-(trifluoromethoxy)phenoxy)acetyl)-8-(3-methyl-5-(trifluoromethyl)phenyl)-1,3,4,12a-tetrahydrobenzo[e]pyrazino[1,2-a][1,4]diazepine-6,12 (2H, 11H)-dione], for which the EC50 amounted to 22.2 nM and the “% EFF vs. 1 nM INSL3 (b)” value was found to be 103.32%. Turning to `Cc1cc(-c2ccc3c(c2)C(=O)N2CCN(C(=O)COc4ccc(OC(F)(F)F)cc4Cl)C[C@H]2CN3)cc(C(F)(F)F)c1.O=C(O)C(F)(F)F` [Example 151, (R)-2-(2-(2-chloro-4-(trifluoromethoxy)phenoxy)acetyl)-8-(3-methyl-5-(trifluoromethyl)phenyl)-1,3,4,11,12,12a-hexahydrobenzo[e]pyrazino[1,2-a][1,4]diazepin-6 (2H)-one-2,2,2-trifluoroacetate], the “% EFF vs. 1 nM INSL3 (b)” value amounted to 0.85%.

In the case of `O=C1Nc2ccc(-c3cc(C(F)(F)F)cc(C(F)(F)F)c3)cc2C(=O)N2CCN(C(=O)COc3ccc(OC(F)(F)F)cc3Cl)C[C@@H]12` [Example 157, (S)-8-(3,5-Bis(trifluoromethyl)phenyl)-2-(2-(2-chloro-4-(trifluoromethoxy)phenoxy)acetyl)-1,3,4,12a-tetrahydrobenzo[e]pyrazino[1,2-a][1,4]diazepine-6,12 (2H, 11H)-dione], the EC50 was 39.1 nM and the “% EFF vs. 1 nM INSL3 (b)” value stood at 108.89%. The like results for `O=C1Nc2ccc(-c3cc(Cl)cc(C(F)(F)F)c3)cc2C(=O)N2CCN(C(=O)COc3ccc(OC(F)(F)F)cc3Br)C[C@@H]12` [Example 162, (S)-2-(2-(2-Bromo-4-(trifluoromethoxy)phenoxy)acetyl)-8-(3-chloro-5-(trifluoromethyl)phenyl)-1,3,4,12a-tetrahydrobenzo[e]pyrazino[1,2-a][1,4]diazepine-6,12 (2H, 11H)-dione] were, in that order, 121 nM and 130.93%. For `O=C1Nc2ccc(-c3cc(Cl)cc(C(F)(F)F)c3)cc2C(=O)N2CCN(C(=O)COc3ccc(OC(F)(F)F)cc3Cl)C[C@@H]12` [Example 163, (S)-2-(2-(2-chloro-4-(trifluoromethoxy)phenoxy)acetyl)-8-(3-chloro-5-(trifluoromethyl)phenyl)-1,3,4,12a-tetrahydrobenzo[e]pyrazino[1,2-a][1,4]diazepine-6,12 (2H, 11H)-dione], the “% EFF vs. 1 nM INSL3 (b)” value amounted to 114.25%. On the same count and under the same terms, next, `Cc1cc(OC(F)(F)F)ccc1OCC(=O)N1CCN2C(=O)c3cc(-c4cc(Cl)cc(C(F)(F)F)c4)ccc3NC(=O)[C@@H]2C1` [Example 164, (S)-8-(3-chloro-5-(trifluoromethyl)phenyl)-2-(2-(2-methyl-4-(trifluoromethoxy)phenoxy)acetyl)-1,3,4,12a-tetrahydrobenzo[e]pyrazino[1,2-a][1,4]diazepine-6,12 (2H, 11H)-dione]: 126.02%. `Cc1cc(OC(F)F)ccc1OCC(=O)N1CCN2C(=O)c3cc(-c4cccc(C(F)(F)F)c4)ccc3NC(=O)[C@@H]2C1` [Example 166, (S)-2-(2-(4-(difluoromethoxy)-2-methylphenoxy)acetyl)-8-(3-(trifluoromethyl)phenyl)-1,3,4,12a-tetrahydrobenzo[e]pyrazino[1,2-a][1,4]diazepine-6,12 (2H, 11H)-dione]: the EC50 amounted to 236 nM and the “% EFF vs. 1 nM INSL3 (b)” value was 132.67%. The like results for `Cc1cc(OC(F)F)ccc1OCC(=O)N1CCN2C(=O)c3cc(-c4cc(C(F)(F)F)cc(C(F)(F)F)c4)ccc3NC(=O)[C@@H]2C1` [Example 167, (S)-2-(2-(4-(difluoromethoxy)-2-methylphenoxy)acetyl)-8-(3-(trifluoromethyl)-5-(trifluoromethyl)phenyl)-1,3,4,12a-tetrahydrobenzo[e]pyrazino[1,2-a][1,4]diazepine-6,12 (2H, 11H)-dione] were, in that order, 142 nM and 113.26%. Turning to `Cc1cc(-c2ccc3c(c2)C(=O)N2CCN(C(=O)COc4ccc(OC(F)F)cc4C)C[C@H]2C(=O)N3)cc(C(F)(F)F)c1` [Example 168, (S)-2-(2-(4-(Difluoromethoxy)-2-methylphenoxy)acetyl)-8-(3-methyl-5-(trifluoromethyl)phenyl)-1,3,4,12a-tetrahydrobenzo[e]pyrazino[1,2-a][1,4]diazepine-6,12 (2H, 11H)-dione], the “% EFF vs. 1 nM INSL3 (b)” value came to 131.20%. Same read-out and setting: then `Cc1cc(OC(F)F)ccc1OCC(=O)N1CCN2C(=O)c3cc(-c4cc(O)cc(C(F)(F)F)c4)ccc3NC(=O)[C@@H]2C1` [Example 172], with 70.66%.
